Experimental data taken from patent US8952034B2, “Fused heterocyclic compounds as ion channel modulators” (Gilead Sciences, Inc., priority 2009, dated 2015).

Target: wild-type human cardiac sodium channel, hNav1.5 (Homo sapiens, UniProt Q14524)
Experiment: Late INa screening assay (automated whole cell patch clamp, PatchXpress)
Type: cell-based
Details: for inhibition at 1 µM: compound at 1 μM, read-out: LateINa_1 uM (percent block of late INa); for inhibition at 1 µM / inhibition at 10 µM: HEK293 cells expressing hNav1.5, late INa generated with 10 μM Tefluthrin (or 50 nM ATX II); for inhibition at 10 µM: compound at 10 μM, read-out: LateINa_10 uM (percent block of late INa)
In short: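 Late sodium current through wild-type human hNav1.5 stably expressed in HEK293 cells (no beta subunits) was recorded by automated whole-cell patch clamp on a PatchXpress 7000A at 24-27° C. Late INa was induced with 10 μM Tefluthrin or 50 nM ATX II. Cells were stepped from −120 mV to −20 mV for 250 ms at 0.1 Hz, and percent block was normalized to current in Na-free extracellular solution.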

wild-type human cardiac sodium channel, hNav1.5, sequence (Q14524 whole entry): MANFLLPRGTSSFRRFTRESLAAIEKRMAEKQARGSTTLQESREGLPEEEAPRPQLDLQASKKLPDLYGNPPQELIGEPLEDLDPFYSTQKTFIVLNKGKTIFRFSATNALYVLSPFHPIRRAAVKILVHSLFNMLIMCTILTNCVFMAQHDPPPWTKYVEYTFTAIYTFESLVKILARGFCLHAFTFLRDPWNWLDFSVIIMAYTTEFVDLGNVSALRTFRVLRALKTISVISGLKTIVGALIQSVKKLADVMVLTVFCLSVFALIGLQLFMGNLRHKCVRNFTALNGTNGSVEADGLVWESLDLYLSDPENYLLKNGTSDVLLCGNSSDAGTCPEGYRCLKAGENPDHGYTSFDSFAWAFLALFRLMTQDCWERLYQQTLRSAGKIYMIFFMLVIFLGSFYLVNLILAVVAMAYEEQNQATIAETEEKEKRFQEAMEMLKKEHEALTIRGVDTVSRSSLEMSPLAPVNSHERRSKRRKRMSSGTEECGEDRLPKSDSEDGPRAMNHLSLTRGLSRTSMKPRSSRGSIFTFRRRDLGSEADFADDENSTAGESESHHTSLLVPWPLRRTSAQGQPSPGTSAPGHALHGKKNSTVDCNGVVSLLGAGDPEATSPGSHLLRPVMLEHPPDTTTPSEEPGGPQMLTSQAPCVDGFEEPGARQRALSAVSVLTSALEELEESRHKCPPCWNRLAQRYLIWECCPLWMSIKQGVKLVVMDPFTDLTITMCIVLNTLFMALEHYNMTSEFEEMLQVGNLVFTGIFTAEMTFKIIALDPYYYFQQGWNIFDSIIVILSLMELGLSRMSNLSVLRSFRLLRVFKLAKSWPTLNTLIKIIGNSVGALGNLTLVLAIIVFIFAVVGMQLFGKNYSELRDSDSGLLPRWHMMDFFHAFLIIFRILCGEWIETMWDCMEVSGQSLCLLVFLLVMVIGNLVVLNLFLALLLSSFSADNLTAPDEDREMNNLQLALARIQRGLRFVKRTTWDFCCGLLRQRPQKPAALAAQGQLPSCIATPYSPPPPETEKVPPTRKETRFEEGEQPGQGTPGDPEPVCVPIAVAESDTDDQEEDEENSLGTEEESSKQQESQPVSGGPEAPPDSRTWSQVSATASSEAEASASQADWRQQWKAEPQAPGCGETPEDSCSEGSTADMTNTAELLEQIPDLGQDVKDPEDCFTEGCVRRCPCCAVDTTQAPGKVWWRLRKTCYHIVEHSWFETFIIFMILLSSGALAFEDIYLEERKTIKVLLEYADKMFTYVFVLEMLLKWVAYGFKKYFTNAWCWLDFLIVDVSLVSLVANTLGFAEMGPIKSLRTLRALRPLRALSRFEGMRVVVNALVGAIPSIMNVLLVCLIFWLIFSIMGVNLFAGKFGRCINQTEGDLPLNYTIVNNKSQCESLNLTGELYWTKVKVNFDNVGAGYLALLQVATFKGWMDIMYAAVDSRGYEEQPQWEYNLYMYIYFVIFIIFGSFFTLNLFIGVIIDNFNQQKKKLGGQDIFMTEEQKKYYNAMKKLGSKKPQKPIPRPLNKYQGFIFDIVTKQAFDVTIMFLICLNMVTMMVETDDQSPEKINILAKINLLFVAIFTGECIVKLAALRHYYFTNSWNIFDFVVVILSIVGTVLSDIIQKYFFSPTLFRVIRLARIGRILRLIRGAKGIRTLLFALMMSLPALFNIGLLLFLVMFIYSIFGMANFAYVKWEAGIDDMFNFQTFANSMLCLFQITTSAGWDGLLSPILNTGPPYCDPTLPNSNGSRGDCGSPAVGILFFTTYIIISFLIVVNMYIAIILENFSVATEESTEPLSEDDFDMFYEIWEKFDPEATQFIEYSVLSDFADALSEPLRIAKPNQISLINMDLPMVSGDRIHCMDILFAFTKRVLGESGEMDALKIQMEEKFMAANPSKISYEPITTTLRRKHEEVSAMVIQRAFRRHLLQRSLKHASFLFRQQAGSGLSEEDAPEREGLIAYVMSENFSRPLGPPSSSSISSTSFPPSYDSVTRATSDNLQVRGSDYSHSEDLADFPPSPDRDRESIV

SMILES | inhibition at 1 µM | also measured
FC(F)(F)Oc1ccc(-c2ccc3nnc(COCc4ccccc4)n3c2)cc1 [BHN-127, 3-[(benzyloxy)methyl]-6-[4-(trifluoromethoxy)phenyl][1,2,4]triazolo[4,3-a]pyridine] | 93.2% | 
CC(OC(F)(F)c1nnc2ccc(-c3ccc(OC(F)(F)F)cc3)cn12)c1ccc(Cl)cc1 (stereo not drawn) [BHN-231, 3-{[1-(4-chlorophenyl)ethoxy](difluoro)methyl}-6-[4-(trifluoromethoxy)phenyl][1,2,4]triazolo[4,3-a]pyridine] | 62.9% | 
FC(F)(F)Oc1ccc(-c2ccc3nnc(Oc4cccc(C(F)(F)F)c4)n3c2)cc1 [BHN-258] |  | LateINa_1 uM (percent block of late INa): 80.1084%
COc1ccccc1SCC(C)COC(F)(F)c1nnc2ccc(-c3ccc(OC(F)(F)F)cc3)cn12 (stereo not drawn) [BHN-262, 3-(difluoro{3-[(2-methoxyphenyl)sulfanyl]-2-methylpropoxy}methyl)-6-[4-(trifluoromethoxy)phenyl][1,2,4]triazolo[4,3-a]pyridine] | 47.8% | 
FC(F)(F)c1ccc(-c2ccc3nnc(C(F)(F)F)n3c2)c(C(F)(F)F)c1 [BHN-199, 6-[2,4-bis(trifluoromethyl)phenyl]-3-(trifluoromethyl)[1,2,4]triazolo[4,3-a]pyridine] | 20.6% | 
COC(=O)/C=C/c1nc(C(F)(F)F)n2cc(-c3ccc(OC(F)(F)F)cc3)ccc12 [BHN-58, methyl (2E)-3-{6-[4-(trifluoromethoxy)phenyl]-3-(trifluoromethyl)imidazo[1,5-a]pyridin-1-yl}prop-2-enoate] |  | inhibition at 10 µM: 27.6%
FC(F)(F)Oc1ccc(-c2ccc3nnc(C(F)(F)OCc4cccnn4)n3c2)cc1 [BHN-216, 3-[difluoro(pyridazin-3-ylmethoxy)methyl]-6-[4-(trifluoromethoxy)phenyl][1,2,4]triazolo[4,3-a]pyridine] | 26.1% | 
FC(F)(F)c1nnc2ccc(C#Cc3ccccc3)cn12 [BHN-163, 6-(phenylethynyl)-3-(trifluoromethyl)[1,2,4]triazolo[4,3-a]pyridine] | 57.3% | 
FC(F)(F)Oc1ccc(-c2ccc3nnc(C(F)(F)OCc4ccccn4)n3c2)cc1 [BHN-211, 3-[difluoro(pyridin-2-ylmethoxy)methyl]-6-[4-(trifluoromethoxy)phenyl][1,2,4]triazolo[4,3-a]pyridine] | 57.4% | 
C/C(=C\C#N)c1ccc(-c2ccc3nnc(C(F)(F)F)n3c2)cc1 [BHN-169, (2E)-3-{4-[3-(trifluoromethyl)[1,2,4]triazolo[4,3-a]pyridin-6-yl]phenyl}but-2-enenitrile] | 30.5% | 
CCOC(=O)COCC(F)(F)c1nnc2ccc(-c3ccc(OC(F)(F)F)cc3)cn12 [BHN-167, ethyl (2,2-difluoro-2-{6-[4-(trifluoromethoxy)phenyl][1,2,4]triazolo[4,3-a]pyridin-3-yl}ethoxy)acetate] | 45.8% | 
FC(F)(F)c1nnc2ccc(-c3nnc(C4CC4)s3)cn12 [BHN-96, 6-(5-cyclopropyl-1,3,4-thiadiazol-2-yl)-3-(trifluoromethyl)[1,2,4]triazolo[4,3-a]pyridine] | 20.3% | 
FC(F)(F)c1ncc2ccc(-c3nccs3)cn12 [BHN-191, 6-(1,3-thiazol-2-yl)-3-(trifluoromethyl)imidazo[1,5-a]pyridine] | 19.8% | 
Cn1nc(C2CC2)cc1COC(F)(F)c1nnc2ccc(-c3ccc(OC(F)(F)F)cc3)cn12 [BHN-266, 3-{[(3-cyclopropyl-1-methyl-1H-pyrazol-5-yl)methoxy](difluoro)methyl}-6-[4-(trifluoromethoxy)phenyl][1,2,4]triazolo[4,3-a]pyridine] | 50.2% | 
COc1ncc(-c2cc(OC(F)(F)F)ccc2-c2ccc3nnc(C(F)(F)F)n3c2)cn1 [BHN-131, 6-[2-(2-methoxypyrimidin-5-yl)-4-(trifluoromethoxy)phenyl]-3-(trifluoromethyl)[1,2,4]triazolo[4,3-a]pyridine] | 18.5% | 
FC(F)(F)c1nnc2ccc(-c3ccc(Oc4cccnc4)cc3)cn12 [BHN-100, 6-[4-(pyridin-3-yloxy)phenyl]-3-(trifluoromethyl)[1,2,4]triazolo[4,3-a]pyridine] | 27.6% | 
FC(F)(F)c1nnc2ccc(-c3ccc4ccccc4c3)cn12 [BHN-106, 6-(naphthalen-2-yl)-3-(trifluoromethyl)[1,2,4]triazolo[4,3-a]pyridine] | 38.2% | 
FC(F)(F)Oc1ccc(-c2ccc3nnc(C(F)(F)F)n3c2)cc1 [BHN-335, 6-[4-(trifluoromethoxy)phenyl]-3-(trifluoromethyl)[1,2,4]triazolo[4,3-a]pyridine] |  | inhibition at 10 µM: 87.7%
CC(C)(O)c1ccc(-c2ccc3nnc(C(F)(F)F)n3c2)cc1 [BHN-48, 2-{4-[3-(trifluoromethyl)[1,2,4]triazolo[4,3-a]pyridin-6-yl]phenyl}propan-2-ol] |  | inhibition at 10 µM: 18.9%
N#Cc1cccc(-c2nnc3ccc(-c4ccc(F)cc4)nn23)c1 [BHN-51, 3-[6-(4-fluorophenyl)[1,2,4]triazolo[4,3-b]pyridazin-3-yl]benzonitrile] |  | inhibition at 10 µM: 40.5%
Cc1cc(-c2ccc(OC(F)(F)F)cc2)cn2nnnc12 [BHN-268, 8-methyl-6-[4-(trifluoromethoxy)phenyl]tetrazolo[1,5-a]pyridine] | 43.2% | 
Cn1cc(-c2nnc3ccc(-c4ccc(OC(F)(F)F)cc4)cn23)cn1 [BHN-82, 3-(1-methyl-1H-pyrazol-4-yl)-6-[4-(trifluoromethoxy)phenyl][1,2,4]triazolo[4,3-a]pyridine] |  | inhibition at 10 µM: 38.9%
CCC(O)(CC)C(F)(F)c1nnc2ccc(-c3ccc(OC(F)(F)F)cc3)cn12 [BHN-197, 3-(difluoro{6-[4-(trifluoromethoxy)phenyl][1,2,4]triazolo[4,3-a]pyridin-3-yl}methyl)pentan-3-ol] | 25.4% | 
CCc1nnc2ccc(-c3ccc(Oc4ccccc4)cc3)nn12 [BHN-38, 3-ethyl-6-(4-phenoxyphenyl)[1,2,4]triazolo[4,3-b]pyridazine] | 54.5% | inhibition at 10 µM: 79.3%
FC(F)(F)Oc1ccc(-c2ccc3nnc(C(F)(F)OCc4cc(-c5ccccc5)on4)n3c2)cc1 [BHN-298, 3-{difluoro[(5-phenyl-1,2-oxazol-3-yl)methoxy]methyl}-6-[4-(trifluoromethoxy)phenyl][1,2,4]triazolo[4,3-a]pyridine] | 70.3% | 
CCOc1cc(OC(F)(F)F)ccc1-c1ccc2nnc(C(F)(F)F)n2c1 [BHN-222, 6-[2-ethoxy-4-(trifluoromethoxy)phenyl]-3-(trifluoromethyl)[1,2,4]triazolo[4,3-a]pyridine] | 65.3% | 
FC(F)(F)Oc1ccc(-c2ccc3nnc(C(F)(F)F)n3c2)c(Br)c1 [BHN-124, 6-[2-bromo-4-(trifluoromethoxy)phenyl]-3-(trifluoromethyl)[1,2,4]triazolo[4,3-a]pyridine] | 82% | 
CC1(COC(F)(F)c2nnc3ccc(-c4ccc(OC(F)(F)F)cc4)cn23)COC1 [BHN-142, 3-{difluoro[(3-methyloxetan-3-yl)methoxy]methyl}-6-[4-(trifluoromethoxy)phenyl][1,2,4]triazolo[4,3-a]pyridine] | 38.8% | 
FC(F)(F)Oc1ccc(-c2ccc3nnc(C(F)(F)OCC#Cc4ccccc4)n3c2)cc1 [BHN-295, 3-{difluoro[(3-phenylprop-2-yn-1-yl)oxy]methyl}-6-[4-(trifluoromethoxy)phenyl][1,2,4]triazolo[4,3-a]pyridine] | 87.7% | 
